Measurements as given in ChEMBL document CHEMBL1201862, “PubChem BioAssay data set” (2004).
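Growth conditions: 96-well plates. Treatment: test compound, 48 hours, 5 concentrations. Analysis: linear interpolation between bracketing concentrations; unreached endpoints set to highest concentration. The concentration for 50% growth inhibition is given as GI50.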 The source made the active and inactive calls. Cut-off read from the data, not from the text of the source: active = GI50 up to about 1.1 µM and inactive = higher.

Assays:
Assay in all cases: growth of human tumour cells (NCI), 48 h
[1] = system: 786-0
[2] = system: A498
[3] = system: A549
[4] = system: ACHN
[5] = system: BT-549
[6] = system: CAKI-1
[7] = system: CCRF-CEM
[8] = system: COLO 205
[9] = system: DU-145
[10] = system: HCC 2998
[11] = system: HCT-116
[12] = system: HCT-15
[13] = system: HL-60
[14] = system: HOP-62
[15] = system: HOP-92
[16] = system: HT-29
[17] = system: Hs-578T
[18] = system: IGROV-1
[19] = system: K562
[20] = system: KM12
[21] = system: LOX IMVI
[22] = system: M14
[23] = system: MCF7
[24] = system: MDA-MB-231
[25] = system: MDA-MB-435
[26] = system: MDA-N
[27] = system: MOLT-4
[28] = system: Malme-3M
[29] = system: NCI-H226
[30] = system: NCI-H23
[31] = system: NCI-H460
[32] = system: NCI-H522
[33] = system: NCI/ADR-RES
[34] = system: OVCAR-3
[35] = system: OVCAR-4
[36] = system: OVCAR-5
[37] = system: OVCAR-8
[38] = system: PC-3
[39] = system: RPMI-8226
[40] = system: RXF 393
[41] = system: SF-268
[42] = system: SF-295
[43] = system: SF-539
[44] = system: SK-MEL-28
[45] = system: SK-MEL-2
[46] = system: SK-MEL-5
[47] = system: SN12C
[48] = system: SNB-19
[49] = system: SNB-75
[50] = system: SR
[51] = system: SW-620
[52] = system: T47D
[53] = system: TK-10
[54] = system: U-251
[55] = system: UACC-257
[56] = system: UACC-62
[57] = system: UO-31
[58] = system: EKVX
[59] = system: SK-OV-3

For `Cc1ccc2c(c1)[nH]c(=S)n2/C=C1\C(=O)Oc2ccccc2C1=O`, the GI50 [1] was 42.8 µM (inactive), the GI50 [2] was 49.1 µM (inactive) and the GI50 [3] was 77.4 µM (inactive). For the same compound, the GI50 [4] was 36 µM (inactive), the GI50 [5] was 45.7 µM (inactive) and the GI50 [6] was 19.6 µM (inactive). The GI50 [7] was 34.8 µM (inactive), the GI50 [8] was 99.3 µM (inactive) and the GI50 [9] was 41.3 µM (inactive). For the same compound, the GI50 [10] was > 100 µM (inactive), the GI50 [11] was 44.9 µM (inactive) and the GI50 [12] was 44.9 µM. The GI50 [13] was 55 µM (inactive), the GI50 [14] was 51.3 µM (inactive) and the GI50 [15] was 39 µM (inactive). For the same compound, the GI50 [16] was 57.5 µM (inactive), the GI50 [17] was 25.5 µM (inactive) and the GI50 [18] was 39 µM (inactive). The GI50 [19] was 52.2 µM (inactive), the GI50 [20] was 84.5 µM (inactive) and the GI50 [21] was 70 µM (inactive). The GI50 [22] was 39.8 µM (inactive), the GI50 [23] was > 100 µM (inactive) and the GI50 [24] was 50.5 µM (inactive). The GI50 [25] was 61.8 µM (inactive), the GI50 [26] was 90.6 µM (inactive) and the GI50 [27] was 38.2 µM (inactive). The GI50 [28] was 34.6 µM (inactive), the GI50 [29] was > 100 µM (inactive) and the GI50 [30] was 70.8 µM (inactive). The GI50 [31] was 44.1 µM (inactive), the GI50 [32] was 38.7 µM (inactive) and the GI50 [33] was 56.2 µM (inactive). The GI50 [34] was 24.4 µM (inactive), the GI50 [35] was 64.1 µM (inactive) and the GI50 [36] was > 100 µM (inactive). The GI50 [37] was 65.8 µM (inactive), the GI50 [38] was 76.7 µM (inactive) and the GI50 [39] was 65.2 µM (inactive). The GI50 [40] was 30.5 µM (inactive), the GI50 [41] was 55.7 µM (inactive) and the GI50 [42] was > 100 µM (inactive). The GI50 [43] was 69.7 µM (inactive), the GI50 [44] was 47.3 µM (inactive) and the GI50 [45] was > 100 µM (inactive). For the same compound, the GI50 [46] was 40.6 µM (inactive), the GI50 [47] was 59.4 µM (inactive) and the GI50 [48] was 86.5 µM (inactive). The GI50 [49] was 38.4 µM (inactive), the GI50 [50] was 71.6 µM (inactive) and the GI50 [51] was 52.6 µM (inactive). For the same compound, the GI50 [52] was 89.1 µM (inactive), the GI50 [53] was > 100 µM (inactive) and the GI50 [54] was 53.1 µM (inactive). The GI50 [55] was 82 µM (inactive), the GI50 [56] was 13.1 µM (inactive) and the GI50 [57] was 30.2 µM (inactive).
For `CC1=NN(c2cccc(S(=O)(=O)O)c2)C2(C1)SCC(=O)N2c1nc2ccccc2s1` (stereo not given), the GI50 [1] was > 100 µM (inactive), the GI50 [2] was > 100 µM (inactive) and the GI50 [3] was > 100 µM (inactive). For the same compound, the GI50 [4] was > 100 µM (inactive), the GI50 [5] was > 100 µM (inactive) and the GI50 [6] was > 100 µM (inactive). For the same compound, the GI50 [8] was > 100 µM (inactive), the GI50 [9] was > 100 µM (inactive) and the GI50 [58] was > 100 µM (inactive). For the same compound, the GI50 [10] was > 100 µM (inactive), the GI50 [11] was > 100 µM (inactive) and the GI50 [12] was greater than 100 µM. The GI50 [13] was 91.2 µM (inactive), the GI50 [14] was > 100 µM (inactive) and the GI50 [15] was > 100 µM (inactive). The GI50 [16] was > 100 µM (inactive), the GI50 [17] was > 100 µM (inactive) and the GI50 [18] was > 100 µM (inactive). For the same compound, the GI50 [19] was > 100 µM (inactive), the GI50 [20] was > 100 µM (inactive) and the GI50 [21] was 88.9 µM (inactive). The GI50 [22] was > 100 µM (inactive), the GI50 [23] was > 100 µM (inactive) and the GI50 [24] was > 100 µM (inactive). The GI50 [25] was > 100 µM (inactive), the GI50 [26] was > 100 µM (inactive) and the GI50 [27] was > 100 µM (inactive). The GI50 [28] was > 100 µM (inactive), the GI50 [29] was > 100 µM (inactive) and the GI50 [30] was > 100 µM (inactive). For the same compound, the GI50 [31] was > 100 µM (inactive), the GI50 [32] was > 100 µM (inactive) and the GI50 [33] was > 100 µM (inactive). The GI50 [34] was 83.2 µM (inactive), the GI50 [35] was > 100 µM (inactive) and the GI50 [36] was > 100 µM (inactive). The GI50 [37] was > 100 µM (inactive), the GI50 [38] was > 100 µM (inactive) and the GI50 [39] was > 100 µM (inactive). For the same compound, the GI50 [40] was > 100 µM (inactive), the GI50 [41] was > 100 µM (inactive) and the GI50 [42] was > 100 µM (inactive). For the same compound, the GI50 [43] was 17.6 µM (inactive), the GI50 [44] was > 100 µM (inactive) and the GI50 [45] was > 100 µM (inactive). The GI50 [46] was > 100 µM (inactive), the GI50 [59] was > 100 µM (inactive) and the GI50 [47] was > 100 µM (inactive). The GI50 [48] was > 100 µM (inactive), the GI50 [49] was > 100 µM (inactive) and the GI50 [50] was 35.7 µM (inactive). For the same compound, the GI50 [51] was 9.1 µM (inactive), the GI50 [52] was > 100 µM (inactive) and the GI50 [53] was > 100 µM (inactive). For the same compound, the GI50 [54] was > 100 µM (inactive), the GI50 [55] was > 100 µM (inactive) and the GI50 [56] was > 100 µM (inactive). The GI50 [57] was > 100 µM (inactive).
